Data: US20220142995A1, “DUAL ATM AND DNA-PK INHIBITORS FOR USE IN ANTI-TUMOR THERAPY” (XRAD Therapeutics, Inc., priority 2019, published 2022)

Test system: ATM and DNA-PK kinases
Experiment: Immunoblot of radiation-induced phosphorylation of ATM, DNA-PKcs and KAP1 in MCF7 cells
Format: cell-based, human
Details: MCF7 cells, 20, 100, 500, 1000 nM, 30 min pre-treatment, 10 Gy, harvested 1 h later
Procedure: Cell Culture. The MCF-7 human breast carcinoma cell line and HCT116 p53 wild-type and HCT116 p53−/− cell lines were obtained from ATCC. […]
Immunoblotting. […] One hour after IR, cells were lysed in RIPA buffer ([…], pH 8.0, 150 mM NaCl, 0.1% SDS, 0.5% sodium deoxycholate, 1% IGEPAL® CA-630 (Sigma, 18896) for 20 min at 4° C. in the presence of protease and phosphatase inhibitor cocktails (Roche, #04693159001 & #04906837001). Cell lysates were centrifuged at 13,200 g for 10 min at 4° C. and supernatants were analyzed for protein content using BCA assay (Pierce™ BCA Protein Assay Kit, cat #23227, ThermoFisher Waltham, Mass. 02451) and equal amounts of protein/lane were used for subsequent immunoblot analyses. Proteins were denatured by adding NuPAGE LSD Sample Buffer [4×] […]

Structure (SMILES): CC(C)NCCOc1ncc(-c2cc3c4c(cnc3cc2F)N(C)C(=O)C42CCC2)cc1NS(C)(=O)=O [Compound 569, N-(5-(7′-Fluoro-3′-methyl-2′-oxo-2′,3′-dihydrospiro[cyclobutane-1,1′-pyrrolo[2,3-c]quinolin]-8′-yl)-2-(2-(isopropylamino)ethoxy)pyridin-3-yl)methanesulfonamide]
- inhibition of radiation-induced phosphorylation of DNA-PKcs Ser2056, ATM Ser1981 and KAP1 ser824: potent dose-dependent inhibition
